From patent publication US9670227B2, “Thienopyrimidine derivatives, a process for their preparation and pharmaceutical compositions containing them” (LES LABORATOIRES SERVIER, priority 2013, dated 2017) come the findings set out here.

Where two headings read alike, the source gives them in different places.

This assay deals with Mcl-1 protein (UniProtKB primary accession number: Q07820) (Homo sapiens, UniProt Q07820). Kind of assay: Inhibition of Mcl-1 by fluorescence polarisation, Method 1. The class given is binding. The note with it: read-out: IC50 (M) Mcl-1 FP. The method, then:
The relative binding potency of each compound was determined via Fluorescence Polarisation (FP).
An 11 point serial dilution of each compound was prepared in DMSO and 2 μl transferred into flat bottomed, low binding, 384-well plate (final DMSO concentration 5%). 38 μl of buffer (10 mM 4-(2-hydroxyethyl)-1-piperazineethanesulfonic acid [HEPES], 150 mM NaCl, 0.05% Tween 20, pH 7.4), containing the Fluorescein labelled ligand (final concentration 1 nM) and Mcl-1 protein (final concentration 5 nM) was then added.

Where [1] appears, read: fluorescence polarisation test, Method 2 values are underlined in the patent (underlining not visible here).
The mark [2] stands for this setting: fluorescence polarisation, Method 1, or Method 2.

Mcl-1 protein, sequence (Q07820 whole entry): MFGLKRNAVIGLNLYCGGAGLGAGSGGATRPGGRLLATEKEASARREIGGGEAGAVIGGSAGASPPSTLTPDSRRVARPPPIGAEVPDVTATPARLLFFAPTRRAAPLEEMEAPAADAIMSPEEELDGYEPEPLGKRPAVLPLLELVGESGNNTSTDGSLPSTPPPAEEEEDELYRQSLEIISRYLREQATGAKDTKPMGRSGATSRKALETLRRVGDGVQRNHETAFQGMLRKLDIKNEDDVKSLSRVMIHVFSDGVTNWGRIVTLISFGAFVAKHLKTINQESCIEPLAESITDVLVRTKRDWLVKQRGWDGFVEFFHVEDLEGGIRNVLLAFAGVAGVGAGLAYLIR

`Cc1c(-c2c(-c3ccc(F)o3)sc3ncnc(OC(Cc4ccccc4OCc4ccccn4)C(=O)O)c23)ccc(OCCN2CCN(C)CC2)c1Cl` (single isomer, unassigned) [Example 165]: the concentration for half-maximal inhibition (IC50) under setting [1] turned out to be 1.6e-06 M. For `Cc1c(-c2c(-c3ccc(F)o3)sc3ncnc(OC(Cc4ccccc4OCc4ccccn4)C(=O)O)c23)ccc(OCCN2CCN(C)CC2)c1Cl` (single isomer, unassigned) [Example 166], the IC50 under setting [1] was determined as 6e-09 M.

As for `COc1ccccc1CC(Oc1ncnc2sc(-c3ccco3)c(-c3ccc(OC4CCCCN(C)C4)c(Cl)c3C)c12)C(=O)O` (single isomer, unassigned) [Example 300, (2R)-2-{[(5Sa)-5-{3-chloro-2-methyl-4-[(3R or S)-(1-methylazepan-3-yl)oxy]phenyl}-6-(furan-2-yl)thieno[2,3-d]pyrimidin-4-yl]oxy}-3-(2-methoxyphenyl)propanoic acid], the concentration for half-maximal inhibition (IC50) under setting [1] worked out at 3.7e-08 M.

For `COc1ccccc1CC(Oc1ncnc2sc(-c3ccco3)c(-c3ccc(OCCC4CN(C)CCO4)c(Cl)c3C)c12)C(=O)O` (single isomer, unassigned) [Example 318], the IC50 under setting [1] came to 3e-08 M.

In the case of `COc1ccccc1C[C@@H](Oc1ncnc2sc(-c3ccco3)c(-c3ccc(OCCN4CCN(C)CC4)c(F)c3C)c12)C(=O)O` (single isomer, unassigned) [Example 333], the IC50 under setting [1] came to 7.9e-07 M. Same read-out and setting: as for `Cc1c(-c2c(-c3ccco3)sc3ncnc(O[C@@H](C(=O)O)[C@@H](O)c4ccccc4)c23)ccc(OCCN2CCN(C)CC2)c1Cl` (single isomer, unassigned) [Example 342], the figure is 3.5e-07 M; as for `Cc1c(-c2c(-c3ccco3)sc3ncnc(O[C@@H](C(=O)O)[C@@H](O)c4ccccc4)c23)ccc(OCCN2CCN(C)CC2)c1Cl` (single isomer, unassigned) [Example 343], 2.5e-07 M. Turning to `CC#Cc1sc2ncnc(O[C@H](Cc3ccccc3OC)C(=O)O)c2c1-c1cc(F)c(OC)c(Cl)c1C` (single isomer, unassigned) [Example 470], under setting [2], the 50% inhibitory concentration (IC50) was 4.8e-07 M.

Consider `CC#Cc1sc2ncnc(O[C@H](Cc3ccccc3OC)C(=O)O)c2c1-c1cc(F)c(OC)c(Cl)c1C` (single isomer, unassigned) [Example 471], for which, under setting [2], the IC50 came out at 6.3e-09 M. For `CC#Cc1sc2ncnc(O[C@H](Cc3ccccc3OC)C(=O)O)c2c1-c1ccc(CCCN(C)C)c(Cl)c1C` (single isomer, unassigned) [Example 478], the IC50 under setting [2] came to 5.3e-07 M. For `CC#Cc1sc2ncnc(O[C@H](Cc3ccccc3OC)C(=O)O)c2c1-c1ccc(CCCN(C)C)c(Cl)c1C` (single isomer, unassigned) [Example 479], the concentration for half-maximal inhibition (IC50) under setting [2] stood at 1.1e-08 M. As to `COc1ccccc1CC(Oc1ncnc2sc(C3CCCO3)c(-c3ccc(OCCN4CCN(C)CC4)c(Cl)c3C)c12)C(=O)O` (single isomer, unassigned) [Example 590, (2R)-2-{[(5Sa)-5-{3-chloro-2-methyl-4-[2-(4-methylpiperazin-1-yl)ethoxy]phenyl}-6-((2S or R)-tetrahydrofuran-2-yl)thieno[2,3-d]pyrimidin-4-yl]oxy}-3-(2-methoxyphenyl)propanoic acid], the IC50 under setting [2] was found to be 8.4e-08 M. Take `Cc1c(-c2c(-c3ccc(F)cc3)sc3ncnc(OC(Cc4ccccc4OCC4CCCO4)C(=O)O)c23)ccc(OC2CCCN(C)C2)c1Cl` (single isomer, unassigned) [Example 650, (2R)-2-{[(5Sa)-5-{3-chloro-2-methyl-4-[((3R or S)-1-methylpiperidin-3-yl)oxy]phenyl}-6-(4-fluorophenyl)thieno[2,3-d]pyrimidin-4-yl]oxy}-3-{2-[(2R)-tetrahydrofuran-2-ylmethoxy]phenyl}propanoic acid]: under setting [2], the half-inhibitory concentration (IC50) amounted to 5.1e-08 M. For `COc1ccccc1C[C@@H](Oc1ncnc2sc(-c3ccc(F)cc3)c(-c3ccc(CCCN4CCN(C)CC4)c(Cl)c3C)c12)C(=O)O` (single isomer, unassigned) [Example 653], the 50% inhibitory concentration (IC50) under setting [2] worked out at 1.6e-08 M. With `Cc1c(-c2c(-c3ccc(F)cc3)sc3ncnc(OC(Cc4ccccc4OCC(F)(F)F)C(=O)O)c23)ccc(OCC2CCCN2C)c1Cl` (single isomer, unassigned) [Example 659, (2R)-2-{[(5Sa)-5-{3-chloro-2-methyl-4-[((2R or S)-1-methylpyrrolidin-2-yl)methoxy]phenyl}-6-(4-fluorophenyl)thieno[2,3-d]pyrimidin-4-yl]oxy}-3-[2-(2,2,2-trifluoroethoxy)phenyl]propanoic acid], the half-inhibitory concentration (IC50) under setting [2] was 2.2e-08 M.

Regarding `COc1ccccc1C[C@@H](Oc1ncnc2sc(-c3ccc(F)cc3)c(-c3cc(F)c(OCCN4CCN(C)CC4)c(Cl)c3C)c12)C(=O)O` (single isomer, unassigned) [Example 665], the IC50 under setting [2] amounted to 3.9e-06 M. `CCc1sc2ncnc(O[C@@H](Cc3ccccc3OC)C(=O)O)c2c1-c1ccc(O)c(Cl)c1C` (single isomer, unassigned) [Example 679]: the IC50 under setting [2] came to 8.9e-07 M. For `CCc1sc2ncnc(O[C@@H](Cc3ccccc3OC)C(=O)O)c2c1-c1ccc(O)c(Cl)c1C` (single isomer, unassigned) [Example 680], the IC50 under setting [2] came to 2.8e-05 M. On to `CCc1sc2ncnc(OC(Cc3ccccc3OC)C(=O)O)c2c1-c1ccc(O)c(Cl)c1C` (single isomer, unassigned) [Example 681], for which, under setting [2], the IC50 stood at 6.7e-09 M.

`CCc1sc2ncnc(O[C@H](Cc3ccccc3OC)C(=O)O)c2c1-c1ccc(O)c(Cl)c1C` (single isomer, unassigned) [Example 682]: the IC50 under setting [2] was found to be 5.1e-07 M. As for `COc1ccccc1C[C@@H](Oc1ncnc2sc(-c3cccc(F)c3F)c(-c3ccc(C#CCN4CCN(C)CC4)c(Cl)c3C)c12)C(=O)O` (single isomer, unassigned) [Example 716], the 50% inhibitory concentration (IC50) under setting [2] was 1.5e-06 M. On the same count and under the same terms, as for `C=C(C)c1sc2ncnc(O[C@H](Cc3ccccc3)C(=O)O)c2c1-c1cccc(Cl)c1C` (single isomer, unassigned) [Example 719], the figure is 2.7e-06 M; as for `C=C(C)c1sc2ncnc(O[C@H](Cc3ccccc3)C(=O)O)c2c1-c1cccc(Cl)c1C` (single isomer, unassigned) [Example 720], 4.4e-08 M. Take `COc1ccccc1-c1nccc(COc2ccccc2CC(Oc2ncnc3sc(-c4ccc(Oc5ccccc5)cc4)c(-c4ccc(OCCN5CCN(C)CC5)c(Cl)c4C)c23)C(=O)O)n1` (single isomer, unassigned) [Example 758]: the IC50 under setting [2] came out at 3.53e-07 M. As for `COc1ccccc1-c1nccc(COc2ccccc2CC(Oc2ncnc3sc(-c4ccc(OCCN5CCOCC5)cc4)c(-c4ccc(OCCN5CCN(C)CC5)c(Cl)c4C)c23)C(=O)O)n1` (single isomer, unassigned) [Example 763], under setting [2], the IC50 came to 9.05e-08 M. Still for that read-out and setting: as for `COc1ccccc1-c1nccc(COc2ccccc2CC(Oc2ncnc3sc(-c4ccc(OCCc5ccccc5)cc4)c(-c4ccc(OCCN5CCN(C)CC5)c(Cl)c4C)c23)C(=O)O)n1` (single isomer, unassigned) [Example 765], the figure is 6.58e-07 M. As to `COc1ccccc1CC(Oc1ncnc2sc(-c3ccc(F)cc3)c(-c3ccc(OCCN4CCN(C)CC4)c(Cl)c3C)c12)C(=O)O` [Example 1, (2R)-2-{[(5Sa)-5-{3-chloro-2-methyl-4-[2-(4-methylpiperazin-1-yl)ethoxy]phenyl}-6-(4-fluorophenyl)thieno[2,3-d]pyrimidin-4-yl]oxy}-3-(2-methoxyphenyl)propanoic acid], the IC50 under setting [1] turned out to be 8e-08 M. For `Cc1c(-c2c(-c3ccc(F)cc3)sc3ncnc(OC(Cc4ccccc4OCC4CCCO4)C(=O)O)c23)ccc(OCCN2CCN(C)CC2)c1Cl` [Example 2, (2R)-2-{[(5Sa)-5-{3-chloro-2-methyl-4-[2-(4-methylpiperazin-1-yl)ethoxy]phenyl}-6-(4-fluorophenyl)thieno[2,3-d]pyrimidin-4-yl]oxy}-3-{2-[(2R)-tetrahydrofuran-2-ylmethoxy]phenyl}propanoic acid], the half-maximal inhibitory concentration (IC50) under setting [1] was 1.2e-08 M. Same read-out and setting: for `Cc1c(-c2c(-c3ccc(F)cc3)sc3ncnc(OC(Cc4ccccc4OCC(F)(F)F)C(=O)O)c23)ccc(OCCN2CCN(C)CC2)c1Cl` [Example 3, (2R)-2-{[(5Sa)-5-{3-chloro-2-methyl-4-[2-(4-methylpiperazin-1-yl)ethoxy]phenyl}-6-(4-fluorophenyl)thieno[2,3-d]pyrimidin-4-yl]oxy}-3-[2-(2,2,2-trifluoroethoxy)phenyl]propanoic acid] the value was 8.9e-09 M; for `Cc1c(-c2c(-c3ccc(F)cc3)sc3ncnc(OC(Cc4ccccc4OCc4ccccn4)C(=O)O)c23)ccc(OCCN2CCN(C)CC2)c1Cl` [Example 14, (2R)-2-{[(5Sa)-5-{3-chloro-2-methyl-4-[2-(4-methylpiperazin-1-yl)ethoxy]phenyl}-6-(4-fluorophenyl)thieno[2,3-d]pyrimidin-4-yl]oxy}-3-[2-(pyridin-2-ylmethoxy)phenyl]propanoic acid], 1.3e-08 M.

For `Cc1c(-c2c(-c3ccc(F)cc3)sc3ncnc(OC(Cc4ccccc4OCc4ccnc(-c5ccccn5)n4)C(=O)O)c23)ccc(OCCN2CCN(C)CC2)c1Cl` [Example 31, (2R)-2-{[(5Sa)-5-{3-chloro-2-methyl-4-[2-(4-methylpiperazin-1-yl)ethoxy]phenyl}-6-(4-fluorophenyl)thieno[2,3-d]pyrimidin-4-yl]oxy}-3-(2-{[2-(pyridin-2-yl)pyrimidin-4-yl]methoxy}phenyl)propanoic acid], under setting [1], the IC50 was found to be 5.6e-09 M.

Take `Cc1c(-c2c(-c3ccc(F)cc3)sc3ncnc(OC(Cc4ccccc4OCc4ccnc(-c5cccnc5)n4)C(=O)O)c23)ccc(OCCN2CCN(C)CC2)c1Cl` [Example 32, (2R)-2-{[(5Sa)-5-{3-chloro-2-methyl-4-[2-(4-methylpiperazin-1-yl)ethoxy]phenyl}-6-(4-fluorophenyl)thieno[2,3-d]pyrimidin-4-yl]oxy}-3-(2-{[2-(pyridin-3-yl)pyrimidin-4-yl]methoxy}phenyl)propanoic acid]: under setting [1], the IC50 was 4.8e-09 M.
